Test system: CD8+ T cells of healthy HLA-A*02+ donors
Experiment: In vitro immunogenicity: T-cell priming with aAPCs loaded with peptide/MHC and anti-CD28, pMHC multimer readout
Assay type: cell-based, human
Conditions: HLA-A*02 restricted peptides; Table 6B
Excerpt: In order to obtain information regarding the immunogenicity of the TUMAPs of the present invention, the inventors performed investigations using an in vitro T-cell priming assay based on repeated stimulations of CD8+ T cells with artificial antigen presenting cells (aAPCs) loaded with peptide/MHC complexes and anti-CD28 antibody.
In order to perform in vitro stimulations by artificial antigen presenting cells loaded with peptide-MHC complex (pMHC) and anti-CD28 antibody, the inventors first isolated CD8+ T cells from fresh HLA-A*02 leukapheresis products via positive selection using CD8 microbeads (Miltenyi Biotec, Bergisch-Gladbach, Germany) of healthy donors obtained from the University clinics Mannheim, Germany, after informed consent. PBMCs and isolated CD8+ lymphocytes were incubated in T-cell medium (TCM) until use consisting of RPMI-Glutamax (Invitrogen, Karlsruhe, Germany) supplemented with 10% heat inactivated human AB serum (PAN-Biotech, Aidenbach, Germany), 100 U/ml Penicillin/100 μg/ml Streptomycin (Cambrex, Cologne, Germany), 1 mM sodium pyruvate (CC Pro, Oberdorla, Germany), 20 μg/ml Gentamycin (Cambrex). 2.5 ng/ml IL-7 (PromoCell, Heidelberg, Germany) and 10 U/ml IL-2 (Novartis Pharma, Nürnberg, Germany) were also added to the TCM at this step. Generation of pMHC/anti-CD28 coated beads, T-cell stimulations and readout was performed in a highly defined in vitro system using four different pMHC molecules per stimulation condition and 8 different pMHC molecules per readout condition.
The purified co-stimulatory mouse IgG2a anti human CD28 Ab 9.3 (Jung et al., 1987) was chemically biotinylated using Sulfo-N-hydroxysuccinimidobiotin as recommended by the manufacturer (Perbio, Bonn, Germany). Beads used were 5.6 μm diameter streptavidin coated polystyrene particles (Bangs Laboratories, Illinois, USA).
pMHC used for positive and negative control stimulations were A*0201/MLA-001 (peptide […] (SEQ ID NO. 289) from modified Melan-A/MART-1) and A*0201/DDX5-001 ([…] from DDX5, SEQ ID NO. 290), respectively.
800.000 beads/200 μl were coated in 96-well plates in the presence of 4×12.5 ng different biotin-pMHC, washed and 600 ng biotin anti-CD28 were added subsequently in a volume of 200 μl. Stimulations were initiated in 96-well plates by co-incubating 1×10^6 CD8+ T cells with 2×10^5 washed coated beads in 200 μl TCM supplemented with 5 ng/ml IL-12 (PromoCell) for 3 days at 37° C. Half of the medium was then exchanged by fresh TCM supplemented with 80 U/ml IL-2 and incubating was continued for 4 days at 37° C. This stimulation cycle was performed for a total of three times. For the pMHC multimer readout using 8 different pMHC molecules per condition, a two-dimensional combinatorial coding approach was used as previously described (Andersen et al., 2012) with minor modifications encompassing coupling to 5 different fluorochromes. Finally, multimeric analyses were performed by staining the cells with Live/dead near IR dye (Invitrogen, Karlsruhe, Germany), CD8-FITC antibody clone SK1 (BD, Heidelberg, Germany) and fluorescent pMHC multimers. For analysis, a BD LSRII SORP cytometer equipped with appropriate lasers and filters was used. Peptide specific cells were calculated as percentage of total CD8+ cells. Evaluation of multimeric analysis was done using the FlowJo software (Tree Star, Oregon, USA). In vitro priming of specific multimer+CD8+ lymphocytes was detected by comparing to negative control stimulations.
Exemplary flow cytometry results after TUMAP-specific multimer staining for peptide of the invention are shown in FIG. 3 together with corresponding negative controls.

Row | Substance | Wells positive [%]
1 | 4 (VLFGELPAL; listed as Homo sapiens) [compound 4] | + (<20% = +)
2 | 9 (SLITGQDLLSV; listed as Homo sapiens) [compound 9] | + (<20% = +)
3 | 14 (YTFSGDVQL; listed as Homo sapiens) [compound 14] | + (<20% = +)
4 | 17 (GLLPSAESIKL; listed as Homo sapiens) [compound 17] | + (<20% = +)
5 | 27 (GLLGKVTSV; listed as Homo sapiens) [compound 27] | + (<20% = +)
6 | 29 (KMISAIPTL; listed as Homo sapiens) [compound 29] | + (<20% = +)
7 | 35 (VIIKGLEEI; listed as Homo sapiens) [compound 35] | + (<20% = +)
8 | 50 (ILLSVLHQL; listed as Homo sapiens) [compound 50] | + (<20% = +)
9 | 66 (AMFPDTIPRV; listed as Homo sapiens) [compound 66] | + (<20% = +)
10 | 77 (ALYGNVQQV; listed as Homo sapiens) [compound 77] | + (<20% = +)
11 | 89 (SLAETIFIV; listed as Homo sapiens) [compound 89] | + (<20% = +)
12 | 97 (KLFEKSTGL; listed as Homo sapiens) [compound 97] | + (<20% = +)
13 | 101 (SLLEVNEASSV; listed as Homo sapiens) [compound 101] | + (<20% = +)
14 | 102 (GLYPVTLVGV; listed as Homo sapiens) [compound 102] | + (<20% = +)
15 | 121 (ALYVQAPTV; listed as Homo sapiens) [compound 121] | + (<20% = +)
16 | 157 (ILQDGQFLV; listed as Homo sapiens) [compound 157] | + (<20% = +)
17 | 233 (SLFESLEYL; listed as Homo sapiens) [compound 233] | + (<20% = +)
18 | 236 (KMSELQTYV; listed as Homo sapiens) [compound 236] | + (<20% = +)
19 | 242 (KLQEEIPVL; listed as Homo sapiens) [compound 242] | + (<20% = +)
20 | 246 (ALAGIVTNV; listed as Homo sapiens) [compound 246] | + (<20% = +)
21 | 254 (ALGDKFLLRV; listed as Homo sapiens) [compound 254] | + (<20% = +)
22 | 255 (FLMKNSDLYGA; listed as Homo sapiens) [compound 255] | + (<20% = +)
23 | 257 (KLIDHQGLYL; listed as Homo sapiens) [compound 257] | + (<20% = +)
24 | 260 (ALNESLVEC; listed as Homo sapiens) [compound 260] | + (<20% = +)
25 | 263 (SIIEYLPTL; listed as Homo sapiens) [compound 263] | + (<20% = +)
26 | 264 (TLHDQVHLL; listed as Homo sapiens) [compound 264] | + (<20% = +)
27 | 267 (YLLDMPLWYL; listed as Homo sapiens) [compound 267] | + (<20% = +)

Same assay, conditions: percentage of positive donors; Table 6A

Row | Substance | in vitro immunogenicity: donors
28 | 288 (SLYKGLLSV; listed as Homo sapiens) [compound 288] | ++++ (> = 70% = ++++)

Same assay, conditions: percentage of positive wells; Table 6A

Row | Substance | in vitro immunogenicity: wells
29 | 287 (KIQEILTQV; listed as Homo sapiens) [compound 287] | + (<20% = +)

From patent publication US11155597B2, “Relaxin1 derived peptides for use in immunotherapy” (Immatics Biotechnologies GmbH, priority 2015, dated 2021)
